Experiments:
Rattus norvegicus = conditions: for LD50: acute, oral, mortality
Oryctolagus sp. = conditions: reproduction developmental; body weight
Bibionidae = conditions: chronic/long-term; other
Apis mellifera = conditions: acute, mortality
Pleurozium sp. = conditions: acute; duration: 96 hours; biomass
Landoltia sp. = conditions: chronic/long-term; duration: 7 days; biomass
Pimephales promelas = conditions: chronic/long-term; duration: 34 days; other
Oncorhynchus mykiss = conditions: acute; duration: 96 hours; mortality
Daphnia magna = conditions: chronic/long-term; duration: 21 days; reproduction
Neomysis kadiakensis = conditions: acute; duration: 96 hours; mortality

SMILES	LD50 (Rattus norvegicus) [mg/kg-day]	NOAEL (Rattus norvegicus; subchronic, duration: 90 days) [mg/kg-day]	NOAEL (Oryctolagus sp.) [mg/kg-day]	NOEC (Bibionidae) [mg/L]	LD50 (Apis mellifera; dermal) [µg/piece]	LD50 (Apis mellifera; oral, unspecified) [µg/piece]	NOAEL (Rattus norvegicus; chronic, clinical signs) [mg/kg-day]	NOAEL (Rattus norvegicus; chronic, duration: 2 years, F, ophthalmoscopic examination) [mg/kg-day]	NOAEL (Rattus norvegicus; subchronic, duration: 90 days, ophthalmoscopic examination) [mg/kg-day]	NOEC (Pleurozium sp.) [mg/L]	NOEC (Landoltia sp.) [mg/L]	LC50 (Colinus virginianus; acute, oral, diet, mortality) [mg/kg-day]	LD50 (Colinus virginianus; acute, oral, mortality) [mg/kg-day]	NOEC (Colinus virginianus; reproduction developmental) [mg/kg-day]	NOEC (Pimephales promelas) [mg/L]	LC50 (Tagia sp.; acute, duration: 14 days, mortality) [mg/kg]	NOEC (Tagia sp.; chronic/long-term, duration: 28 days, reproduction) [mg/kg]	NOEC (Oncorhynchus mykiss) [mg/L]	NOEC (Daphnia magna) [mg/L]	NOEC (Neomysis kadiakensis) [mg/L]
CS(=O)(=O)c1ccc(C(=O)C2C(=O)C(O)CC(O)C2=O)c(Cl)c1COCC(F)(F)F (configuration not stated)	> 2000	12.7	1																	
CS(=O)(=O)c1ccc(C(=O)C2C(=O)CCCC2=O)c(Cl)c1COCC(F)(F)F [Tembotrione]	> 2000		1	2	> 100	> 92.8	0.8	0.04	0.07	0.2	0.0032	> 1790	> 2250	22.2	0.604	1000	1.25	100	5	0.046
